Laboratory results reported in PubChem BioAssay (NCI).
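At the GI50, growth is halved. Definition used: TGI = concentration required for complete inhibition of growth.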

Experiments:
Test in all cases: NCI anticancer screen, dose series, 384-well format
NCI-H226 lung = tested on: NCI-H226 lung
NCI-H23 lung = tested on: NCI-H23 lung
MDA-MB-435 melanoma = tested on: MDA-MB-435 melanoma
SNB-19 CNS = tested on: SNB-19 CNS
KM12 colon = tested on: KM12 colon
UACC-62 melanoma = tested on: UACC-62 melanoma
NCI-H522 lung = tested on: NCI-H522 lung
MALME-3M melanoma = tested on: MALME-3M melanoma
HCT-15 colon = tested on: HCT-15 colon
HT29 colon = tested on: HT29 colon
SF-539 CNS = tested on: SF-539 CNS
A498 renal = tested on: A498 renal
OVCAR-8 ovarian = tested on: OVCAR-8 ovarian
SNB-75 CNS = tested on: SNB-75 CNS
SK-MEL-5 melanoma = tested on: SK-MEL-5 melanoma
T-47D breast = tested on: T-47D breast
UACC-257 melanoma = tested on: UACC-257 melanoma
SW-620 colon = tested on: SW-620 colon
NCI-H460 NSCLC = tested on: NCI-H460 NSCLC
SK-MEL-28 melanoma = tested on: SK-MEL-28 melanoma
M14 melanoma = tested on: M14 melanoma
K-562 leukemia = tested on: K-562 leukemia
TK-10 renal = tested on: TK-10 renal
SK-MEL-2 melanoma = tested on: SK-MEL-2 melanoma
MDA-MB-231 breast = tested on: MDA-MB-231 breast
786-0 renal = tested on: 786-0 renal
CCRF-CEM leukemia = tested on: CCRF-CEM leukemia
MDA-MB-468 breast = tested on: MDA-MB-468 breast
MCF7 breast = tested on: MCF7 breast
IGROV1 ovarian = tested on: IGROV1 ovarian
HS 578T breast = tested on: HS 578T breast
NCI-H322M lung = tested on: NCI-H322M lung
MOLT-4 leukemia = tested on: MOLT-4 leukemia
A549 NSCLC = tested on: A549 NSCLC
BT-549 breast = tested on: BT-549 breast
LOX IMVI melanoma = tested on: LOX IMVI melanoma
COLO 205 colon = tested on: COLO 205 colon
UO-31 renal = tested on: UO-31 renal
OVCAR-5 ovarian = tested on: OVCAR-5 ovarian
SF-295 CNS = tested on: SF-295 CNS
HCC-2998 colon = tested on: HCC-2998 colon
SR leukemia = tested on: SR leukemia
EKVX NSCLC = tested on: EKVX NSCLC
HOP-62 NSCLC = tested on: HOP-62 NSCLC
CAKI-1 renal = tested on: CAKI-1 renal
HCT-116 colon = tested on: HCT-116 colon
HOP-92 NSCLC = tested on: HOP-92 NSCLC
DU-145 prostate = tested on: DU-145 prostate
OVCAR-3 ovarian = tested on: OVCAR-3 ovarian
SF-268 CNS = tested on: SF-268 CNS
ACHN renal = tested on: ACHN renal
OVCAR-4 ovarian = tested on: OVCAR-4 ovarian
SN12C renal = tested on: SN12C renal
HL-60(TB) leukemia = tested on: HL-60(TB) leukemia
RPMI-8226 leukemia = tested on: RPMI-8226 leukemia
U251 glioblastoma = tested on: U251 glioblastoma
SK-OV-3 ovarian = tested on: SK-OV-3 ovarian
RXF 393 renal = tested on: RXF 393 renal
PC-3 prostate = tested on: PC-3 prostate

For `COc1cc([C@@H]2c3cc4c(cc3[C@@H](OC3OC5COC(C)OC5C(O)C3O)[C@H]3COC(=O)[C@H]23)OCO4)cc(OC)c1O` (stereo not given in full), the GI50 (NCI-H226 lung) was 2.48 µM, the TGI (NCI-H226 lung) was > 37.2 µM and the GI50 (NCI-H23 lung) was 0.809 µM. The TGI (NCI-H23 lung) was 4.37 µM, the GI50 (MDA-MB-435 melanoma) was 3.96 µM and the TGI (MDA-MB-435 melanoma) was 20.4 µM. The GI50 (SNB-19 CNS) was 1.08 µM, the TGI (SNB-19 CNS) was > 23.1 µM and the GI50 (KM12 colon) was 1.68 µM. The TGI (KM12 colon) was 7.91 µM, the GI50 (UACC-62 melanoma) was 1.33 µM and the TGI (UACC-62 melanoma) was 16.6 µM. It also gave a GI50 (NCI-H522 lung) of 1.21 µM, a TGI (NCI-H522 lung) of 7.35 µM and a GI50 (MALME-3M melanoma) of 6.15 µM. The TGI (MALME-3M melanoma) was 43.5 µM, the GI50 (HCT-15 colon) was 2.01 µM and the TGI (HCT-15 colon) was 13.6 µM. For the same compound, the GI50 (HT29 colon) was 2.28 µM, the TGI (HT29 colon) was 7.3 µM and the GI50 (SF-539 CNS) was 0.976 µM. The TGI (SF-539 CNS) was 4.38 µM, the GI50 (A498 renal) was 2 µM and the TGI (A498 renal) was 19 µM. It also gave a GI50 (OVCAR-8 ovarian) of 1.53 µM, a TGI (OVCAR-8 ovarian) of 10.3 µM and a GI50 (SNB-75 CNS) of 1.36 µM. For the same compound, the TGI (SNB-75 CNS) was 6.63 µM, the GI50 (SK-MEL-5 melanoma) was 0.37 µM and the TGI (SK-MEL-5 melanoma) was 1.71 µM. For the same compound, the GI50 (T-47D breast) was 1.04 µM, the TGI (T-47D breast) was > 95.3 µM and the GI50 (UACC-257 melanoma) was 16.6 µM. For the same compound, the TGI (UACC-257 melanoma) was > 75.9 µM, the GI50 (SW-620 colon) was 0.441 µM and the TGI (SW-620 colon) was 5.58 µM. The GI50 (NCI-H460 NSCLC) was 0.0915 µM, the TGI (NCI-H460 NSCLC) was 7.61 µM and the GI50 (SK-MEL-28 melanoma) was 2.61 µM. For the same compound, the TGI (SK-MEL-28 melanoma) was 11.4 µM, the GI50 (M14 melanoma) was 1.32 µM and the TGI (M14 melanoma) was 6.64 µM. The GI50 (K-562 leukemia) was 0.91 µM, the TGI (K-562 leukemia) was 6.36 µM and the GI50 (TK-10 renal) was 2.88 µM. It also gave a TGI (TK-10 renal) of 11.3 µM, a GI50 (SK-MEL-2 melanoma) of 4.15 µM and a TGI (SK-MEL-2 melanoma) of 8.27 µM. For the same compound, the GI50 (MDA-MB-231 breast) was 1.88 µM, the TGI (MDA-MB-231 breast) was 4.62 µM and the GI50 ([…]-0 renal) was 1.59 µM. The TGI (786-0 renal) was 7.56 µM, the GI50 (CCRF-CEM leukemia) was 0.0638 µM and the TGI (CCRF-CEM leukemia) was 0.2 µM. For the same compound, the GI50 (MDA-MB-468 breast) was 1.13 µM, the TGI (MDA-MB-468 breast) was 2.78 µM and the GI50 (MCF7 breast) was 0.716 µM. For the same compound, the GI50 (IGROV1 ovarian) was 4.27 µM, the TGI (IGROV1 ovarian) was > 37.6 µM and the GI50 (HS 578T breast) was 0.463 µM. For the same compound, the TGI (HS 578T breast) was 4.82 µM, the GI50 (NCI-H322M lung) was 29.1 µM and the TGI (NCI-H322M lung) was > 96.7 µM. The GI50 (MOLT-4 leukemia) was 0.0176 µM, the TGI (MOLT-4 leukemia) was 0.0389 µM and the GI50 (A549 NSCLC) was 1.22 µM. The TGI (A549 NSCLC) was > 47 µM, the GI50 (BT-549 breast) was 0.877 µM and the TGI (BT-549 breast) was 4.74 µM. It also gave a GI50 (LOX IMVI melanoma) of 1.66 µM, a TGI (LOX IMVI melanoma) of 15.9 µM and a GI50 (COLO 205 colon) of 0.433 µM. For the same compound, the TGI (COLO 205 colon) was 10.6 µM, the GI50 (UO-31 renal) was 22.2 µM and the TGI (UO-31 renal) was > 77.9 µM. For the same compound, the GI50 (OVCAR-5 ovarian) was 3.37 µM, the TGI (OVCAR-5 ovarian) was 13.8 µM and the GI50 (SF-295 CNS) was 0.851 µM. It also gave a TGI (SF-295 CNS) of 3.01 µM, a GI50 (HCC-2998 colon) of 1.82 µM and a TGI (HCC-2998 colon) of 4.15 µM. It also gave a GI50 (SR leukemia) of 0.0161 µM, a TGI (SR leukemia) of 0.0494 µM and a GI50 (EKVX NSCLC) of 11.3 µM. The TGI (EKVX NSCLC) was > 43.6 µM, the GI50 (HOP-62 NSCLC) was 0.747 µM and the TGI (HOP-62 NSCLC) was 2.51 µM. The GI50 (CAKI-1 renal) was 1.61 µM, the TGI (CAKI-1 renal) was > 41 µM and the GI50 (HCT-116 colon) was 0.56 µM. The TGI (HCT-116 colon) was 25.9 µM, the GI50 (HOP-92 NSCLC) was 2.46 µM and the TGI (HOP-92 NSCLC) was > 43.1 µM. The GI50 (DU-145 prostate) was 1.52 µM, the TGI (DU-145 prostate) was 5.25 µM and the GI50 (OVCAR-3 ovarian) was 2.64 µM. For the same compound, the TGI (OVCAR-3 ovarian) was 13.8 µM, the GI50 (SF-268 CNS) was 1.36 µM and the TGI (SF-268 CNS) was 6.87 µM. For the same compound, the GI50 (ACHN renal) was 1.8 µM, the TGI (ACHN renal) was 10.3 µM and the GI50 (OVCAR-4 ovarian) was 39.9 µM. The GI50 (SN12C renal) was 1.28 µM, the TGI (SN12C renal) was 5.72 µM and the GI50 (HL-60(TB) leukemia) was 0.0215 µM. It also gave a TGI (HL-60(TB) leukemia) of 0.0492 µM, a GI50 (RPMI-8226 leukemia) of 0.0361 µM and a TGI (RPMI-8226 leukemia) of 0.564 µM. It also gave a GI50 (U251 glioblastoma) of 0.533 µM, a TGI (U251 glioblastoma) of 5.05 µM and a GI50 (SK-OV-3 ovarian) of 2.94 µM. For the same compound, the TGI (SK-OV-3 ovarian) was 14.6 µM, the GI50 (RXF 393 renal) was 9.62 µM and the TGI (RXF 393 renal) was 38.3 µM. The GI50 (PC-3 prostate) was 20.4 µM.
